# From patent US8912142B2, “Method of regulating proliferation and differentiation of keratinocyes” (The Medical Research, Infrastructure and Health Services …, priority 2009, dated 2014)
# d = 2'-deoxy (DNA); r = 2'-OH (RNA)
# Columns and labels:
# [1] = system: primary keratinocytes transfected with IGFBP7 siRNA; assay: ERK inhibition, proliferation of IGFBP7-silenced primary keratinocytes; format: cell-based, human; settings: 120 μM for 72 hours, medium refreshed every 24 hours
# Description: FIG. 17 is a histogram depicting the effect of ERK inhibition on primary keratinocytes proliferation in IFGBP7-silenced cells and control cells. Primary keratinocytes which were transfected with IGFBP7 siRNA were treated with 120 μM PD98059 (ERK inhibitor) for 72 hours, while refreshing the medium every 24 hours. Note that ERK inhibition attenuates cell proliferation induced by IGFBP7 down-regulation (p<0.01).
# To further investigate the involvement of ERK in IGFBP7-mediated cell proliferation primary keratinocytes which were transfected with IGFBP7 siRNA were treated with the ERK inhibitor PD98059 (120 μM for 72 hours, while refreshing the medium every 24 hours).
# HaCat cells = assay: MTT assay (cell viability) in HaCat cells; format: cell-based, human; settings: siRNA, cultured 24 and 72 hours
# Description: (§1) FIGS. 3A-F depict viability and proliferation assays of keratinocytes. […] Data represent mean values±SD of three independent experiments. Asterisk, p<0.01 compared with control cells. FIG. 3B—HaCat cells stably expressing an IGFBP7-specific shRNA or a control shRNA were assessed using the BrDu assay (stable transfection). Data represent mean values±SD of three independent experiments. Asterisk, p<0.01 compared with control cells. FIGS. 3C and D—KRT6a mRNA and protein levels were assessed by qRT-PCR (FIG. 3C) and immunoblotting (FIG. 3D) in HaCat cells stably expressing an IGFBP7-specific shRNA or a control shRNA. FIGS. 3E and F—Primary keratinocytes were transiently transfected with IGFBP7-specific siRNA (IGFBP7) or with control siRNA (control) and assessed using the MTT assay (FIG. 3E; 24 and 48 hours post transfection) and the BrDu assay (FIG. 3F; 24 hours post transfection). Data represent mean values±SD of three independent experiments (Asterisk, p<0.01 compared with control cells).
# The MTT test is based on the selective ability of living cells to reduce the yellow salt MTT (3-(4,5-dimethylthiazolyl-2)-2,5-diphenyltetrazolium bromide) (Sigma, Aldrich St Louis, Mo., USA) to a purple-blue insoluble formazan precipitate. […] The supernatants were collected and then scanned with an ELISA reader Zenyth 200 (Anthos Labtec, Cambridge, UK) at 560 nm.
# [2] = system: primary human keratinocytes; assay: BrDu incorporation assay (proliferation) in primary keratinocytes; format: cell-based
# Description: as §1, with “Data represent mean values±SD of three independent experiments (Asterisk, p<0.01 compared with control cells).” left out
# (§2) FIGS. 6A-C depict cell viability and proliferation assays of primary keratinocytes which exogenously express IGFBP7. […] FIGS. 6A-B—Cell viability and proliferation were assessed using the MTT (FIG. 6A) and BrDU (FIG. 6B) assays. FIG. 6C—Apoptosis was quantitated by TUNEL assay. […]
# The incorporation rate of BrdU was determined by Cell Proliferation ELISA BrdU colorimetric kit (Roche, Mannheim, Germany) according to manufacturer's protocol. Absorbance at 450 nm was measured using an ELISA reader. […]
# [3] = system: primary human keratinocytes; assay: MTT assay (cell viability) in primary keratinocytes; format: cell-based
# Description: as §1, §2
# IGFBP7 = assay: qRT-PCR of IGFBP7 mRNA in organotypic skin equivalents; format: cell-based, human
# Description: RNA was extracted from cultured cells using an RNA extraction kit (Roche Mannheim, Germany). cDNA was synthesized from 500 ng of total RNA using the Reverse-iT first strand synthesis kit (ABgene, Epson, UK) and random hexamers. cDNA PCR amplification was carried out using the SYBR Green JumpStart Taq ReadyMix (Sigma-Aldrich, St Louis, Mo., USA) on a M×3000 p/5 p multifilter system (Stratagene, Cedar Creek, Tex., USA) with gene-specific intron-crossing oligonucleotide pairs listed in Table 2 below. To ensure the specificity of the reaction conditions, at the end of the individual runs, the melting temperature (Tm) of the amplified products was measured to confirm its homogeneity. […] Each sample was analyzed in triplicate. For quantification, standard curves were obtained using serially diluted cDNA amplified in the same real-time PCR run. […] After the quantification procedure, the products were resolved by 2.5% agarose gel electrophoresis to confirm that the reaction had amplified DNA fragments of expected size.
# (§3) To confirm the physiological relevance of these findings in keratinocyte monolayers, the present inventors suppressed the expression of IGFBP7 by RNA interference in skin organotypic cultures. […] Punch biopsies were also taken at day 7 for RNA extraction, transcribed to cDNA and analyzed by qRT-PCR for IGFBP7 mRNA expression. […]
# [4] = system: primary human keratinocytes; assay: TUNEL apoptosis assay in primary keratinocytes; format: cell-based
# Description: FIGS. 4A-C depict apoptosis assays in HaCat or primary keratinocyte cells. FIGS. 4A-B—HaCat cells stably expressing IGFBP7-specific (IGFBP7) or control shRNA (Co) (scrambled control), were exposed to 10 ng/μl of recombinant tumor necrosis factor-alpha (TNF-α) (+) or vehicle (−) 24 hours after transfection. Apoptosis was measured using the TUNEL assay (FIG. 4A) or the Annexin V assay (FIG. 4B). FIG. 4C—Primary keratinocytes were transiently transfected with IGFBP7-specific siRNA (IGFBP7) or with scrambled control siRNA (Co) and exposed to 10 ng/μl of recombinant TNF-α (+) or vehicle (−). Apoptotic activity was assessed by the TUNEL assay. All experiments were repeated three times. Results are provided as mean values±SD. […]
# as §2
# Apoptosis was assessed using the TUNEL kit (Roche, Mannheim, Germany) according to the manufacturer's protocol. […] More than 1,000 cells were counted for each slide and examined under a fluorescent microscope Zeiss Axioscope 2 (Carl Zeiss MicroImaging, Inc., Thornwood, N.Y.). […] Differences in apoptotic activity were considered significant at p-values <0.01 calculated using a standard Student's t-test.
# [5] = system: three-dimensional organotypic skin equivalents; assay: H&E staining of organotypic skin equivalents; format: cell-based, human; settings: day 14
# Description: The present inventors used a three-dimensional organotypic cell culture system to model the role of decreased IGFBP7 expression in the pathogenesis of psoriasis (FIGS. 18 and 19). In this model system, keratinocytes are grown at the air liquid interface on a support consisting of collagen and fibroblasts for up to 2 weeks. During this time, keratinocytes fully differentiate, forming a multilayered, cornified epithelium which faithfully replicates most physiological aspects of normal epidermal biology. The present inventors established the conditions necessary to grow such three-dimensional skin equivalents. Histological and immunohistochemical analyses confirmed the existence of a legitimate differentiation program in these cultures. […] At day 12, the stratum corneum was thickened and desquamation, i.e., detachment of cornified keratinocytes, occurred (FIG. 20).
# as §3, with “expression. IGFBP7 specific siRNA suppressed IGFBP7 expression to less than 60% of the normal level in skin equivalents as measured at day 7 (data not shown).” for “expression.”
# [6] = system: human skin grafted onto beige-SCID mice injected with NK/T cells from psoriatic patients; assay: Chimeric human-mouse psoriasis model, histology; format: in vivo; settings: intralesional, histology two weeks after the treatment
# Description: To assess the effect of IGFBP7 on psoriasis, the present inventors used a chimeric mouse model (FIG. 23). The model is based on the use of normal skin from healthy controls that is grafted onto beige-SCID mice. The grafts are then injected with NK/T cells isolated from psoriatic patients (Gilhar et al., 2002).
# In the experimental system used herein, two weeks after NK injection (6 weeks after engraftment) 3 groups of mice were treated with intralesional PBS, topical dexamethasone and intralesional IGFBP7. The effect of the treatment was monitored by histology analysis two weeks after the treatment (8 weeks after engraftment).
# [7] = system: primary keratinocyte cells; assay: Effect of rIGFBP7 on differentiation of primary keratinocytes; format: cell-based, human; settings: data not shown
# Source text: To confirm the involvement of IGFBP7 in the regulation of keratinocyte proliferation and differentiation, the present inventors examined the effect of recombinant human IGFBP7 polypeptide (rIGFBP7) on primary keratinocyte cells.
# [8] = 1.8 μg/μl rIGFBP7 for 72 hours, then 12 hours in medium lacking rIGFBP7
molecule,measurement,setting,value
COc1cccc(-c2cc(=O)c3ccccc3o2)c1N [PD98059],keratinocyte proliferation induced by IGFBP7 down-regulation,[1],prevented the induction of keratinocyte proliferation
"IGFBP7 specific siRNA: siRNA IGFBP7 duplex of SEQ ID NO:32 and SEQ ID NO:33 (Sigma-Proligo) (chain 1 GCUGGUAUCUCCUCUAAGUTT; chain 2 ACUUAGAGGAGAUACCAGCTT; sugars from the 5' end r19 d2, backbone not given here)",cell viability (MTT assay),HaCat cells,more viable and proliferative
same,cell proliferation (BrDu assay),"[2]; primary keratinocytes, 24 hours post transfection",more viable and proliferative
same,cell viability (MTT assay),"[3]; primary keratinocytes, 24 and 48 hours post transfection",more viable and proliferative
same,duration of the siRNA effect,"IGFBP7; organotypic skin model, data not shown",at least 7 days
same,IGFBP7 expression relative to normal level,"IGFBP7; skin equivalents, day 7, data not shown",less than 60%
same,TNF-α-induced cell apoptosis (TUNEL assay),"[4]; primary keratinocytes transiently transfected, 10 ng/μl recombinant TNF-α",prevented TNF-α-induced cell apoptosis
same,H&E histological changes,[5],"abnormal stratification, absence of granular layer, parakeratosis and marked hyperkeratosis"
rIGFBP7: human recombinant IGFBP7 polypeptide (R&D systems Inc. Catalogue No. 1334-B7-025),cell proliferation (BrDu assay),[2]; [8],decrease in cell proliferation
same,viable cell counts (MTT assay),[3]; [8],decrease in viable cell counts
same,keratinocyte apoptosis (TUNEL assay),"[4]; 1.8 μg/μl rIGFBP7 for 72 hours, then 12 hours in medium lacking rIGFBP7, TNF-α-mediated",increase in keratinocyte apoptosis
same,mice with features of psoriasis on histology,[6],one animal only showed features of psoriasis on histology
same,mice with full recovery on histology,[6],three mice showed full recovery
same,mice with partial recovery on histology,[6],one mouse recovered partially (50%)
same,mononuclear infiltrating cells in the dermis,[6],could still be seen in the dermis albeit in smaller numbers
same,cell differentiation,[7],lacked significant effect on cell differentiation
